The results in this text go back to ChEMBL document CHEMBL3351786, “Drug discovery targeting cell division proteins, microtubules and FtsZ” (Bioorg Med Chem, 2014).

What all share (assay type): functional
Test [1] deals with A2780. The test is described as follows: Resistance factor, ratio of IC50 for paclitaxel-resistant human 1A9PTX10 cells to ratio of IC50 for human A2780 cells.
Test [2] relates to A2780. The test is described as follows: Resistance factor, ratio of IC50 for paclitaxel-resistant human 1A9PTX22 cells to ratio of IC50 for human A2780 cells.
The test system of a further test is HeLa. Description: Mitotic arrest in human HeLa cells assessed as apoptosis at 5 nM after 24 hrs by TUNEL assay.

Each structure is given as a SMILES string.

Consider `CCC(=O)O[C@H]1C(=O)[C@@]2(C)[C@H]([C@H](OC(=O)c3cccc(OC)c3)[C@]3(O)C[C@H](OC(=O)[C@H](O)[C@H](C=C(C)C)NC(=O)OC(C)(C)C)C(C)=C1C3(C)C)[C@]1(OC(C)=O)CO[C@@H]1C[C@@H]2O`, for which the “Ratio IC50” value in the test on A2780 [1] was 4.8; in the test on A2780 [2] it was 5.1.
Turning to `CCC(=O)O[C@H]1C(=O)[C@@]2(C)[C@H]([C@H](OC(=O)c3ccccc3)[C@]3(O)C[C@H](OC(=O)[C@H](O)[C@H](C=C(C)C)NC(=O)OC(C)(C)C)C(C)=C1C3(C)C)[C@]1(OC(C)=O)CO[C@@H]1C[C@@H]2O`, the Activity in the test with HeLa turned out to be 70%.
